{"source": "paper PMC2724708", "about": "“Adenosine Kinase of T. b. rhodesiense Identified as the Putative Target of 4-[5-(4-phenoxyphenyl)-2H-pyrazol-3-yl]morpholine Using Chemical Proteomics” (PLoS Neglected Tropical Diseases, 2009)", "key": {"[1]": {"target": "T1, adenosine kinase of T. b. rhodesiense (TbrAK) (Trypanosoma brucei rhodesiense, UniProt Q584S0)", "T1 sequence (Q584S0 1-345)": "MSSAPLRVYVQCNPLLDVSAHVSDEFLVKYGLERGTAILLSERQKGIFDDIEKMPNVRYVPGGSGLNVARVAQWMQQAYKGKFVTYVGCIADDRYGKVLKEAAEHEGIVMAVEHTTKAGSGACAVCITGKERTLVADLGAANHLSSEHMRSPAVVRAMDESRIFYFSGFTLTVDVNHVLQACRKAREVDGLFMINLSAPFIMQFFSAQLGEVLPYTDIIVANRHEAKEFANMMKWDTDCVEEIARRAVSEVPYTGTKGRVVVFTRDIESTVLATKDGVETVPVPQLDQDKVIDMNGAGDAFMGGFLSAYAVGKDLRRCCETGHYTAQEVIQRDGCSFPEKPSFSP", "assay": "HPLC activity assay for TbrAK", "format": "biochemical", "protocol": "TbrAK catalyzes the ATP-dependent phosphorylation of the 5′-hydroxyl moiety of adenosine to form AMP and ADP. The activity assay was based on HPLC separation of substrate and products (adenosine, AMP, ADP, and ATP). The mobile phase consisted of 35 mM KH2PO4, 6 mM tetrabutylammonium hydrogensulfate, (pH 7.0, adjusted with KOH), 125 mM EDTA, and 1% (v/v) acetonitrile. The separation was performed isocratically at a flow-rate of 1.5 ml/min and monitored at 254 nm. The standard reaction in 75 µl total volume containing 0.5 mM ATP, 0.5 mM adenosine, 0.5 mM MgCl2, 1% DMSO in buffer E1 (20 mM Hepes, 150 mM NaCl, pH 7.0) was started with the addition of 2 µg TbrAK (final concentration 0.7 µM) and incubated at 37°C for 10 min while shaking vigorously (600 rpm). […] All reactions were stopped by adding 75 µl mobile phase. 50 µl of the sample volume were injected for analysis and the resulting ADP/ATP ratios were calculated and used as a measure of activity. For comparative reasons the activity recorded in absence of compound was set to 100%. The mean of three independent measurements are reported."}, "[2]": {"target": "T1, adenosine kinase of T. b. rhodesiense (TbrAK)", "assay": "Radiometric assay for EC50 determination (TbrAK hyperactivation)", "format": "biochemical", "conditions": "12 µM [2-3H]adenosine, 167 µM ATP, 0.88 nM TbrAK, 37°C", "protocol": "Radiometric assay for EC50 determination\nThe EC50 for hyperactivation of TbrAK by compound 1 was obtained by monitoring the conversion of [2-3H]adenosine to [2-3H]AMP. Reactions were executed at 37°C in a final volume of 30 µl containing 20 mM Hepes, 50 mM NaCl, 167 µM ATP, 167 µM MgCl2, 0.33 % BSA, and 1.0 % DMSO. The concentration of [2-3H]adenosine was kept constant at 12 µM while compound 1 was varied in the range of 0-100 µM. The reaction was started by the addition of 1 ng (0.88 nM) TbrAK. The reactions were incubated and 5 µl aliquots were spotted on 5 mm diameter DE81-cellulose disks placed in a 96-well plate to stop the reaction. The disks were washed 3 times with 250 µl 5 mM ammonium formate, once with H2O, transferred to scintillation vials, and then soaked with 2 ml of the displacement solution (100 mM HCl, 200 mM KCl) and gently shaken for 1 minute to elute the phosphorylated product. After adding 10 ml scintillation liquid, the samples were counted. For comparative reasons the activity recorded in absence of compound was set to 100 %. The mean of four independent measurements is reported."}, "[3]": {"target": "T1, adenosine kinase of T. b. rhodesiense (TbrAK)", "assay": "Thermal stability assay (CD spectroscopy) regarding TbrAK", "format": "binding", "protocol": "Thermal unfolding of TbrGAPDH and TbrAK was studied by circular dichroism (CD) spectroscopy at 220 nm within the temperature range of 20–90°C using a heating rate of 40°C/h.\nTbrAK in buffer E1 (20 mM Hepes, 150 mM NaCl, pH 7.0) was used at 0.5 mg/ml (final concentration 13 µM). All measurements were done in a 0.5 mm cell and contained 0.1 % DMSO and 2.5 mM EDTA to prevent enzyme activity. Thermal stability was analyzed in presence of 500 µM substrate to record the maximum stability limit, whereas compounds 1 to 5 were used at a concentration of 50 µM, being the highest concentration achievable for compound 2, to allow comparison of all compounds at the same concentration. For evaluation of the CD spectra, the buffer spectrum was subtracted from the protein CD spectrum. All thermal unfolding curves were fitted to a two-state model that had been published recently. The mean of three independent experiments are reported. […]"}, "[4]": {"target": "T1, adenosine kinase of T. b. rhodesiense (TbrAK)", "assay": "Isothermal titration calorimetry (ITC) with TbrAK", "format": "binding", "conditions": "for Kd: two-sites non-interacting binding model", "protocol": "Isothermal titration calorimetry (ITC) was employed to elucidate the binding affinity of compound 1 toward TbrAK. All solutions were degassed for 5 min with gentle stirring under vacuum. TbrAK was dialyzed into buffer E2 (20 mM Tris, 150 mM NaCl, pH 7.5, 5% glycerol), diluted to 7 µM and supplemented with 1% DMSO, filtered and filled into the sample cell. The ligand solution was prepared by diluting a stock solution of compound 1 or 5 in DMSO with buffer E2 to give a final concentration of 150 µM and 1% DMSO. The final ligand solution was filtered before use. A titration experiment consisted of a first control injection of 1 µl followed by 27 injections, each of 10 µl and 20 s duration, with a 4-min interval in between. Raw data were collected, corrected for ligand heats of dilution, integrated and fit to the two-set non-interacting binding sites model using the Origin® software supplied with the instrument. The measurements were performed at least in duplicate."}, "[5]": {"set-up": "method as in PMID 17949068", "conditions": "cited from earlier work"}}, "note": "Read-outs that look alike come from different tables or passages of the source.", "data": [{"molecule": "c1ccc(Oc2ccc(-c3cc(N4CCOCC4)[nH]n3)cc2)cc1", "note": "[compound 1, 4-[5-(4-phenoxyphenyl)-2H-pyrazol-3-yl]morpholine]", "values": [{"measurement": "activity at 50 µM", "setting": "[1]; 50 µM compound, 0.7 µM TbrAK, 10 min, 37°C, ADP/ATP ratio, read-out: TbrAK activity in presence of compound (% of activity without compound)", "result": "245 ± 3", "unit": "%"}, {"measurement": "EC50", "setting": "[1]; 0.5 mM ATP, 0.5 mM adenosine, 0.7 µM TbrAK, read-out: EC50 of TbrAK activation (HPLC assay)", "result": "38900 ± 900", "unit": "nM"}, {"measurement": "fold induction at 50 µM", "setting": "[1]; 10 min, pH 7, 50 µM compound, read-out: fold increase of TbrAK activity", "result": 2.5}, {"measurement": "concentration dependence of the activation effect", "setting": "[1]; range 1–750 µM, up to solubility limit", "result": "concentration dependent"}, {"measurement": "EC50", "setting": "[2]", "result": "38 ± 12", "unit": "nM"}, {"measurement": "Tm of TbrAK", "setting": "[3]; compound at 50 µM, 13 µM TbrAK", "result": "47.9±0.1", "unit": "°C"}, {"measurement": "ΔTm at 50 µM", "setting": "[3]; read-out: ΔTm of TbrAK", "result": 4.8, "unit": "°C"}, {"measurement": "molecules of compound bound per molecule of enzyme", "setting": "[4]", "result": "two"}, {"measurement": "ΔHbind, high affinity binding site", "setting": "[4]", "result": "-3.05 ± 0.77", "unit": "kcal/mol"}, {"measurement": "ΔHbind, low affinity binding site", "setting": "[4]", "result": "-1.13 ± 0.24", "unit": "kcal/mol"}, {"measurement": "Kd", "setting": "[4]; read-out: KD, high affinity binding site", "result": "75 ± 20", "unit": "nM"}, {"measurement": "Kd", "setting": "[4]; read-out: KD, low affinity binding site", "result": "497 ± 34", "unit": "nM"}, {"measurement": "cytotoxicity / general toxicity", "setting": "[5]", "result": "low cytotoxicity"}]}]}
